Test results reported in patent publication US20240116985A1, “STAPLED PEPTIDES AND METHODS THEREOF” (priority 2020, published 2024).
Like-named read-outs stand apart in the source and are kept apart here.

What was measured:
[1] = molecular target: T1, full-length beta-Catenin (Uniprot ID P35222) (Homo sapiens, UniProt P35222); assay: Fluorescence polarization IC50 (beta-catenin / 5FAM-TCF4 10-53 competition); assay type: binding
T1 construct: 10 nM full-length beta-Catenin (Uniprot ID P35222)
T1 sequence (P35222 1-781): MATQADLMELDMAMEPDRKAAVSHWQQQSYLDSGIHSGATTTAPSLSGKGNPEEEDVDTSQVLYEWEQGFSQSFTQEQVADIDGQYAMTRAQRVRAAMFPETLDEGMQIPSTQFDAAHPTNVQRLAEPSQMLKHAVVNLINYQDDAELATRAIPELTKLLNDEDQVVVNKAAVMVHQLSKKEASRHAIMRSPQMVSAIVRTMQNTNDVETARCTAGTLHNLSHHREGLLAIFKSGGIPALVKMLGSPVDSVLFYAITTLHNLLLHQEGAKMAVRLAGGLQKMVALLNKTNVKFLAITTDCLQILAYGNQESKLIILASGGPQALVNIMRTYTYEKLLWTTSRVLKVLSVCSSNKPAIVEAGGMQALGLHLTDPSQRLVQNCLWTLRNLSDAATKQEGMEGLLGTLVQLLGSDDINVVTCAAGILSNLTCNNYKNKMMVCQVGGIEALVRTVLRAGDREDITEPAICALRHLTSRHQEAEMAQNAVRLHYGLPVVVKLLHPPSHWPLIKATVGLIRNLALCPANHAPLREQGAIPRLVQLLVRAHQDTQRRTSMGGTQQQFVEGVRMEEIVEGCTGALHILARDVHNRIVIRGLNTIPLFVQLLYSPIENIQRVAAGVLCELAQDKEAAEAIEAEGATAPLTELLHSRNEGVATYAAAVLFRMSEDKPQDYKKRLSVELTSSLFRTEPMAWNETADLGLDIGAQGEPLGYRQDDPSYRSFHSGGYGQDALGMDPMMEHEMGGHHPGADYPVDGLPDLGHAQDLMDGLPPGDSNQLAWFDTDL

[2] = molecular target: T2, beta-catenin/TCF4 engagement (Homo sapiens, UniProt P35222); assay: Nano-BRET target engagement assay (B-cat-Halo & TCF4-Luc in HEK293 cells); assay type: cell-based
T2 construct: expressed in transfected cells; host or cells: HEK293
T2 sequence (P35222 1-781): T1 sequence (P35222 1-781)

[3] = fluorescence polarization; read-out: beta-Catenin FP IC50
[4] = absolute IC50; read-out: NanoBRET Abs IC50

Row | Structure (SMILES) | IC50 [1, 3] | IC50 [2, 4] | IC50 ([1]; read-out: beta-Catenin FP IC50; fluorescence polarization) | IC50 ([2]; read-out: NanoBRET Abs IC50; absolute IC50)
1 | CC(=O)N1CCC[C@]12CC=CCCCC1(CCCC=CCCCOC(=O)N3CC[C@@](C(=O)N[C@@H](Cc4ccsc4)C(=O)N[C@@H](Cc4csc5ccccc45)C(=O)N[C@@H](C)C(N)=O)(C3)NC(=O)[C@H](CC(C)C)NC(=O)[C@H](Cc3ccc(F)cc3)NC(=O)[C@H](C)NC(=O)[C@H](C)NC(=O)[C@H](Cc3cccc(C(=O)O)c3)NC(=O)[C@H](CC(=O)O)NC1=O)NC(=O)[C@H](CC(C)(C)C)NC(=O)[C@H](CC(=O)O)NC2=O (stereo partly drawn) [I-2262, Ac-PL3-Asp-Npg-B5-Asp-3COOHF-Ala-Ala-4FF-Leu-PyrS2-3Thi-BztA-Ala-NH2] | 0.018 µM | 3.7 µM |  | 
2 | CC(=O)N1CCC[C@]12CC=CCCCC1(CCCC=CCCCOC(=O)N3CC[C@@](C(=O)N[C@@H](Cc4ccc(F)cc4)C(=O)N[C@@H](Cc4csc5ccccc45)C(=O)N[C@@H](C)C(N)=O)(C3)NC(=O)[C@H](CC(C)C)NC(=O)[C@H](Cc3ccccc3)NC(=O)[C@H](C)NC(=O)[C@H](C)NC(=O)[C@H](Cc3cccc(C(=O)O)c3)NC(=O)[C@H](CC(=O)O)NC1=O)NC(=O)[C@H](CC(C)(C)C)NC(=O)[C@H](CC(=O)O)NC2=O (stereo partly drawn) [I-2263, Ac-PL3-Asp-Npg-B5-Asp-3COOHF-Ala-Ala-Phe-Leu-PyrS2-4FF-BztA-Ala-NH2] | 0.047 µM | 4.3 µM |  | 
3 | CC(=O)N1CC2CC1C(=O)N[C@@H](CC(=O)O)C(=O)N[C@@H](CC(C)(C)C)C(=O)NC1(CCCCCCCCOC(=O)N3CC[C@@](C(=O)N[C@@H](Cc4ccsc4)C(=O)N[C@@H](Cc4csc5ccccc45)C(=O)N[C@@H](CCC(N)=O)C(N)=O)(C3)NC(=O)[C@H](CC(C)C)NC(=O)[C@H](Cc3ccccc3)NC(=O)[C@H](C)NC(=O)[C@H](C)NC(=O)[C@H](CN(CC(=O)O)CC(F)(F)F)NC(=O)[C@H](CC(=O)O)NC1=O)CCCCCCCC(=O)O2 (stereo partly drawn) [I-2265, Ac-HypEs5-Asp-Npg-B5-Asp-TfeGA-Ala-Ala-Phe-Leu-PyrS2-3Thi-BztA-Gln-NH2] | 0.067 µM | > 20 µM |  | 
4 | CC(=O)N1CCC[C@]12CC=CCCCC1(CCCC=CCCCOC(=O)N3CC[C@@](C(=O)N[C@@H](Cc4ccsc4)C(=O)N[C@@H](Cc4csc5ccccc45)C(=O)N[C@@H](CC(N)=O)C(=O)N[C@@H](C)C(=O)NC(C)(C)C(=O)N[C@@H](C)C(=O)NC(C)(C)C(=O)N[C@@H](C)C(N)=O)(C3)NC(=O)[C@H](CC(C)C)NC(=O)[C@H](Cc3ccccc3)NC(=O)[C@H](C)NC(=O)[C@H](C)NC(=O)[C@H](Cc3cccc(C(=O)O)c3)NC(=O)[C@H](CC(=O)O)NC1=O)NC(=O)[C@H](CC(C)(C)C)NC(=O)[C@H](CC(=O)O)NC2=O (stereo partly drawn) [I-2272, Ac-PL3-Asp-Npg-B5-Asp-3COOHF-Ala-Ala-Phe-Leu-PyrS2-3Thi-BztA-Asn-Ala-Aib-Ala-Aib-Ala-NH2] | 0.043 µM | 3 µM |  | 
5 | CC(=O)N1CCC[C@]12CC=CCCCC1(CCCC=CCCCOC(=O)N3CC[C@@](C(=O)N[C@@H](Cc4ccsc4)C(=O)N[C@@H](Cc4csc5ccccc45)C(=O)N[C@@H](CC(N)=O)C(=O)N[C@@H](C)C(=O)NC(C)(C)C(=O)N[C@@H](C)C(=O)NC(C)(C)C(=O)N[C@@H](C)C(=O)NC(C)(C)C(=O)N[C@@H](C)C(N)=O)(C3)NC(=O)[C@H](CC(C)C)NC(=O)[C@H](Cc3ccccc3)NC(=O)[C@H](C)NC(=O)[C@H](C)NC(=O)[C@H](Cc3cccc(C(=O)O)c3)NC(=O)[C@H](CC(=O)O)NC1=O)NC(=O)[C@H](CC(C)(C)C)NC(=O)[C@H](CC(=O)O)NC2=O (stereo partly drawn) [I-2273, Ac-PL3-Asp-Npg-B5-Asp-3COOHF-Ala-Ala-Phe-Leu-PyrS2-3Thi-BztA-Asn-Ala-Aib-Ala-Aib-Ala-Aib-Ala-NH2] | 0.107 µM | 6.2 µM |  | 
6 | CC(=O)N1CCC[C@]12CC=CCCCC1(CCCC=CCCCOC(=O)N3CC[C@@](C(=O)N[C@@H](Cc4ccsc4)C(=O)N[C@@H](Cc4csc5ccccc45)C(=O)N[C@@H](CC(N)=O)C(=O)N[C@@H](CC(C)C)C(=O)N[C@@H](CC(C)C)C(=O)N[C@@H](CC(C)C)C(N)=O)(C3)NC(=O)[C@H](CC(C)C)NC(=O)[C@H](Cc3ccccc3)NC(=O)[C@H](C)NC(=O)[C@H](C)NC(=O)[C@H](Cc3cccc(C(=O)O)c3)NC(=O)[C@H](CC(=O)O)NC1=O)NC(=O)[C@H](CC(C)(C)C)NC(=O)[C@H](CC(=O)O)NC2=O (stereo partly drawn) [I-2275, Ac-PL3-Asp-Npg-B5-Asp-3COOHF-Ala-Ala-Phe-Leu-PyrS2-3Thi-BztA-Asn-Leu-Leu-Leu-NH2] | 0.117 µM | 3.5 µM |  | 
7 | CC(=O)N1CCC[C@]12CC=CCCCC1(CCCC=CCCCOC(=O)N3CC[C@@](C(=O)N[C@@H](Cc4ccsc4)C(=O)N[C@@H](Cc4csc5ccccc45)C(=O)N[C@@H](CC(N)=O)C(=O)N[C@@H](C)C(=O)N[C@@H](CC(C)C)C(=O)N[C@@H](CC(C)C)C(N)=O)(C3)NC(=O)[C@H](CC(C)C)NC(=O)[C@H](Cc3ccccc3)NC(=O)[C@H](C)NC(=O)[C@H](C)NC(=O)[C@H](Cc3cccc(C(=O)O)c3)NC(=O)[C@H](CC(=O)O)NC1=O)NC(=O)[C@H](CC(C)(C)C)NC(=O)[C@H](CC(=O)O)NC2=O (stereo partly drawn) [I-2277, Ac-PL3-Asp-Npg-B5-Asp-3COOHF-Ala-Ala-Phe-Leu-PyrS2-3Thi-BztA-Asn-Ala-Leu-Leu-NH2] | 0.114 µM | 2.3 µM |  | 
8 | CC(=O)N1CCC[C@]12CC=CCCCC1(CCCC=CCCCOC(=O)N3CC[C@@](C(=O)N[C@@H](Cc4ccsc4)C(=O)N[C@@H](Cc4csc5ccccc45)C(=O)N[C@@H](CC(N)=O)C(=O)N[C@@H](C)C(=O)N[C@@H](CC(C)C)C(=O)N[C@@H](CC(C)C)C(N)=O)(C3)NC(=O)[C@H](CC(C)C)NC(=O)[C@H](Cc3ccccc3)NC(=O)[C@H](C)NC(=O)[C@H](C)NC(=O)[C@H](Cc3cccc(C(=O)O)c3)NC(=O)[C@H](CC(=O)O)NC1=O)NC(=O)[C@H](CC(C)(C)C)NC(=O)[C@H](CC(=O)O)NC2=O (stereo partly drawn) [I-2278, Ac-PL3-Asp-Npg-B5-Asp-3COOHF-Ala-Ala-Phe-Leu-PyrS2-3Thi-BztA-Asn-Ala-Leu-Leu-NH2] | 0.12 µM | 2.8 µM |  | 
9 | CC(=O)N1CCC[C@]12CC=CCCCC1(CCCC=CCCCOC(=O)N3CC[C@@](C(=O)N[C@@H](Cc4ccsc4)C(=O)N[C@@H](Cc4csc5ccccc45)C(=O)N[C@@H](CC(N)=O)C(=O)N[C@@H](CC(C)C)C(=O)N[C@@H](CC(C)C)C(=O)N[C@@H](CC(C)C)C(=O)N[C@@H](CC(C)C)C(=O)N[C@@H](CC(C)C)C(N)=O)(C3)NC(=O)[C@H](CC(C)C)NC(=O)[C@H](Cc3ccccc3)NC(=O)[C@H](C)NC(=O)[C@H](C)NC(=O)[C@H](Cc3cccc(C(=O)O)c3)NC(=O)[C@H](CC(=O)O)NC1=O)NC(=O)[C@H](CC(C)(C)C)NC(=O)[C@H](CC(=O)O)NC2=O (stereo partly drawn) [I-2279, Ac-PL3-Asp-Npg-B5-Asp-3COOHF-Ala-Ala-Phe-Leu-PyrS2-3Thi-BztA-Asn-Leu-Leu-Leu-Leu-Leu-NH2] |  |  | 7.23 µM | > 20 µM
10 | CC(=O)N1CCC[C@]12CC=CCCCC1(CCCC=CCCCOC(=O)N3CC[C@@](C(=O)N[C@@H](Cc4ccsc4)C(=O)N[C@@H](Cc4csc5ccccc45)C(=O)N[C@@H](CC(N)=O)C(=O)N[C@@H](C)C(=O)N[C@@H](CC(C)C)C(=O)N[C@@H](C)C(=O)N[C@@H](CC(C)C)C(=O)N[C@@H](C)C(N)=O)(C3)NC(=O)[C@H](CC(C)C)NC(=O)[C@H](Cc3ccccc3)NC(=O)[C@H](C)NC(=O)[C@H](C)NC(=O)[C@H](Cc3cccc(C(=O)O)c3)NC(=O)[C@H](CC(=O)O)NC1=O)NC(=O)[C@H](CC(C)(C)C)NC(=O)[C@H](CC(=O)O)NC2=O (stereo partly drawn) [I-2281, Ac-PL3-Asp-Npg-B5-Asp-3COOHF-Ala-Ala-Phe-Leu-PyrS2-3Thi-BztA-Asn-Ala-Leu-Ala-Leu-Ala-NH2] | 0.138 µM | 4.3 µM |  | 
11 | CC(=O)N1CCC[C@]12CC=CCCCC1(CCCC=CCCCOC(=O)N3CC[C@@](C(=O)N[C@@H](Cc4ccsc4)C(=O)N[C@@H](Cc4csc5ccccc45)C(=O)N[C@@H](CC(N)=O)C(=O)N[C@@H](C)C(=O)N[C@@H](CC(C)C)C(=O)N[C@@H](C)C(=O)N[C@@H](CC(C)C)C(=O)N[C@@H](C)C(N)=O)(C3)NC(=O)[C@H](CC(C)C)NC(=O)[C@H](Cc3ccccc3)NC(=O)[C@H](C)NC(=O)[C@H](C)NC(=O)[C@H](Cc3cccc(C(=O)O)c3)NC(=O)[C@H](CC(=O)O)NC1=O)NC(=O)[C@H](CC(C)(C)C)NC(=O)[C@H](CC(=O)O)NC2=O (stereo partly drawn) [I-2282, Ac-PL3-Asp-Npg-B5-Asp-3COOHF-Ala-Ala-Phe-Leu-PyrS2-3Thi-BztA-Asn-Ala-Leu-Ala-Leu-Ala-NH2] | 0.155 µM | 3.7 µM |  | 
12 | CC(=O)N1CCC[C@]12CC=CCCCC1(CCCC=CCCCOC(=O)N3CC[C@@](C(=O)N[C@@H](Cc4ccsc4)C(=O)N[C@@H](Cc4csc5ccccc45)C(=O)N[C@@H](CC(N)=O)C(=O)N[C@@H](C)C(=O)N[C@@H](CC(C)C)C(=O)N[C@@H](C)C(=O)N[C@@H](CC(C)C)C(=O)N[C@@H](C)C(=O)N[C@@H](CC(C)C)C(=O)N[C@@H](C)C(N)=O)(C3)NC(=O)[C@H](CC(C)C)NC(=O)[C@H](Cc3ccccc3)NC(=O)[C@H](C)NC(=O)[C@H](C)NC(=O)[C@H](Cc3cccc(C(=O)O)c3)NC(=O)[C@H](CC(=O)O)NC1=O)NC(=O)[C@H](CC(C)(C)C)NC(=O)[C@H](CC(=O)O)NC2=O (stereo partly drawn) [I-2283] | 2.86 µM | 4.5 µM |  | 
